Laboratory results: PMC6010053, “The hop-derived compounds xanthohumol, isoxanthohumol and 8-prenylnaringenin are tight-binding inhibitors of human aldo-keto reductases 1B1 and 1B10” (Journal of Enzyme Inhibition and Medicinal Chemistry, 2018)

Columns and labels:
AKR1B1 [1] = biological target: T1, AKR1B1 (Homo sapiens, UniProt P15121); assay: AKR1B1-catalysed glyceraldehyde (GA) reduction, NADPH absorbance decrease at 340 nm; format: biochemical; conditions: for IC50 / Ki: GA at KM 50 μM, mean ± SD; for IC50: 200 μM NADPH, pH 7.4, 37 °C, at least three experiments; for Ki: Morrison equation for tight-binding inhibitors; for mode of inhibition with respect to the co-factor binding site for NADPH: glyceraldehyde reduction, IC50 as a function of NADPH concentration
T1 construct: 6xHis; made in house; host or cells: E. coli BL21 (DE3)
Protocol: (§1) The recombinant enzymes AKR1A1, AKR1B1 and AKR1B10 were prepared in an Escherichia coli expression system according to previously published methods: AKR1A1 was a gentle gift from Prof. Dr. Vladimir Wsol[63]; AKR1B1 was a friendly gift from Dr. Nina Kassner; information about production and purification of AKR1B10 has been published before. Genetic information on the specific inserts of all obtained plasmids was verified by sequencing (MWG Eurofins). The plasmids were then transformed into E. coli BL21 (DE3) cells. For over-expression of 6 × His-tagged enzymes, a 400-ml culture (containing the appropriate antibiotic; plasmid dependent) was grown to an optical density of 0.6 at 600 nm at 37 °C. Protein over-expression was induced by adding isopropyl-1-thio-galactopyranoside (IPTG) to the culture medium (final concentration of 1 mM). After 3 h, cells were harvested by centrifugation (6000 g, 15 min) and re-suspended in 20 ml PBS-I buffer (20 mM NaH2PO4, 500 mM NaCl, 10 mM imidazole, pH 7.4). Cell disruption was performed by ultrasonication with cooling on ice, to avoid heating. The sample was subsequently centrifuged at 100,000 g at 4 °C for 1 h. The obtained supernatants, containing the target protein were purified using Ni-affinity chromatography on an ÄKTA-Purifier System (Amersham Pharmacia Biotech, Uppsala, Sweden). Purification progress was monitored by SDS-PAGE of the obtained fractions (not shown). Enzyme concentrations were determined using a Qubit 2.0 fluorometric quantitation system (Life Technologies, Carlsbad, CA, USA) according to the manufacturer’s instructions.
Catalytic properties were determined by measuring the decrease in absorbance at 340 nm at 37 °C (Cary 100 scan photometer, Varian, Pal Alto, CA, USA). […] Final enzyme concentrations in the assay ranged from 583 nM (AKR1B10) to 712 nM (AKR1B1). For inhibitor selectivity studies on AKR1A1, AKR1B1 and AKR1B10 stock solutions of the inhibitors XN, XI and 8-PN were prepared in dimethyl sulfoxide (DMSO). The final concentration of DMSO in the assay was ≤0.5%. Activity measurements were started without pre-incubation by adding an appropriate amount of enzyme. When collecting data for dose–response curves, initial velocities of the glyceraldehyde reduction (concentration at KM; enzyme specific) in the presence of inhibitors were assayed as described above. The percentage of inhibition was calculated considering the activity in the absence of inhibitor to be 100%.
(§2) Initially, the half maximal inhibitory concentrations (IC50 values) were determined for each inhibitor in the presence of each enzyme, using the shared substrate glyceraldehyde (set to their specific Km; 3.6 mM, 50 µM and 4 mM for AKR1A1, AKR1B1 and AKR1B10, respectively) to assess specificity among the structurally similar members of the AKR-superfamily. For IC50 determination, experimental data were normalised and fitted to a sigmoidal curve as implemented in GraphPad6 (GraphPad Software Inc., La Jolla, CA, USA). Whenever tight-binding inhibition was observed, the inhibition constant Ki was determined by fitting inhibition data to the Morrison equation as implemented in GraphPad Prism6 (GraphPad Software Inc., La Jolla, CA, USA)[65], using non-linear regression.

AKR1B10 [2] = biological target: T2, AKR1B10 (Homo sapiens, UniProt O60218); assay: AKR1B10-catalysed glyceraldehyde (GA) reduction, NADPH absorbance decrease at 340 nm; format: biochemical; conditions: GA at KM 4 mM, mean ± SD; for IC50: 200 μM NADPH, pH 7.4, 37 °C, at least three experiments; for Ki: Morrison equation for tight-binding inhibitors
T2 construct: 6xHis; made in house; host or cells: E. coli BL21 (DE3)
Protocol: as §1
(§3) Catalytic properties were determined by measuring the decrease in absorbance at 340 nm at 37 °C (Cary 100 scan photometer, Varian, Pal Alto, CA, USA). A reaction mixture without inhibitor consisted of different concentrations of substrate (see Table 1 for details), 200 μM NADPH, 0.1 M NaH2PO4 buffer (pH 7.4) and an appropriate amount of enzyme in a total assay volume of 0.8 ml. Final enzyme concentrations in the assay ranged from 583 nM (AKR1B10) to 712 nM (AKR1B1). For inhibitor selectivity studies on AKR1A1, AKR1B1 and AKR1B10 stock solutions of the inhibitors XN, XI and 8-PN were prepared in dimethyl sulfoxide (DMSO). The final concentration of DMSO in the assay was ≤0.5%. Activity measurements were started without pre-incubation by adding an appropriate amount of enzyme. When collecting data for dose–response curves, initial velocities of the glyceraldehyde reduction (concentration at KM; enzyme specific) in the presence of inhibitors were assayed as described above. The percentage of inhibition was calculated considering the activity in the absence of inhibitor to be 100%.
as §2

AKR1A1 = biological target: T3, AKR1A1 (Homo sapiens, UniProt P14550); assay: AKR1A1-catalysed glyceraldehyde reduction (inhibitor selectivity); format: biochemical
T3 construct: 6xHis; made in house; host or cells: E. coli BL21 (DE3)
T3 sequence (P14550 1-325): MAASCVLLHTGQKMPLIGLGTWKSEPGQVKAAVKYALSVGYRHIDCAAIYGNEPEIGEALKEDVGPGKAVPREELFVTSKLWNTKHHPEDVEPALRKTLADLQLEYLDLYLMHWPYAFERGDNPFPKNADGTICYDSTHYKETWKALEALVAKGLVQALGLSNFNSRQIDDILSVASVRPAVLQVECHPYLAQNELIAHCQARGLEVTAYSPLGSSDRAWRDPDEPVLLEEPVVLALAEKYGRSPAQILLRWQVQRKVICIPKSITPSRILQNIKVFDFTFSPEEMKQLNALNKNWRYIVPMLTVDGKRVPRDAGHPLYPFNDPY
Protocol: as §1
Catalytic properties were determined by measuring the decrease in absorbance at 340 nm at 37 °C (Cary 100 scan photometer, Varian, Pal Alto, CA, USA). A reaction mixture without inhibitor consisted of different concentrations of substrate (see Table 1 for details), 200 μM NADPH, 0.1 M NaH2PO4 buffer (pH 7.4) and an appropriate amount of enzyme in a total assay volume of 0.8 ml. […] The percentage of inhibition was calculated considering the activity in the absence of inhibitor to be 100%. […]

AKR1B1 [3] = biological target: T1, AKR1B1; assay: AKR1B1-catalysed glucose reduction (physiological substrate); format: biochemical; conditions: for Ki / IC50: glucose at KM 32 mM, mean ± SD; for Ki: Morrison equation; for IC50: at least three experiments; for mode of inhibition: with respect to the substrate glucose, IC50 at five substrate concentrations
Protocol: as §3, §2
(§4) In order to verify the inhibitory potency, enzyme-specific physiological substrates for AKR1B1 (glucose, KM = 32 mM) and AKR1B10 (farnesal; KM = 5 µM) were used to determine inhibition parameters. Enzyme inhibition parameters were assayed as described above. The inhibition mechanism of each compound for the respective enzymes was analysed by plotting IC50 values at different substrate concentrations (at least five inhibitor and substrate concentrations)[65]^,[66]. All data obtained were plotted and analysed using GraphPad Prism6 (GraphPad Software Inc., La Jolla, CA, USA).

AKR1B10 [4] = biological target: T2, AKR1B10; assay: AKR1B10-catalysed farnesal reduction (physiological substrate); format: biochemical; conditions: for Ki / IC50: farnesal at KM 5 μM, mean ± SD; for Ki: Morrison equation; for IC50: at least three experiments; for mode of inhibition: with respect to the substrate farnesal, IC50 at five substrate concentrations
Protocol: as §3, §2, §4

AKR1B1 [5] = tested on: AKR1B1; set-up: method as in earlier work; conditions: glyceraldehyde as substrate; cited from earlier work
AKR1B10 [6] = tested on: AKR1B10; set-up: method as in PMID 26844556, PMID 27359042, PMID 28003428, PMID 26968129, PMID 21561086; conditions: selective inhibitors identified so far; cited from earlier work

T2 sequence (O60218 whole entry): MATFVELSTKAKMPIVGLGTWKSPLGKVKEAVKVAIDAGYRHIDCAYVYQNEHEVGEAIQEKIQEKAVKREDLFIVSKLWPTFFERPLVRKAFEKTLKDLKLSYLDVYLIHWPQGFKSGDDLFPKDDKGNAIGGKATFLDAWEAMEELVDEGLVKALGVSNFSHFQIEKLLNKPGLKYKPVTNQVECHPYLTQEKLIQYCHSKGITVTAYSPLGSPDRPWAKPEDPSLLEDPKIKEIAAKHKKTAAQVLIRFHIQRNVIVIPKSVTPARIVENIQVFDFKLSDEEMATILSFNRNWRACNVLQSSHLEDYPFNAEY

COc1cc(O)c(CC=C(C)C)c2c1C(=O)CC(c1ccc(O)cc1)O2 (stereo not shown) [IX, isoxanthohumol]
IC50 (AKR1B1 [1]): 0.57 ± 0.02 µM | Ki (AKR1B1 [1]): 0.17 ± 0.02 µM | mode of inhibition with respect to the co-factor binding site for NADPH (AKR1B1 [1]): uncompetitive | IC50 (AKR1B10 [2]): 1090 ± 60 nM | Ki (AKR1B10 [2]): 520 ± 50 nM | effect on the activity of AKR1A1 (AKR1A1): not affecting | Ki (AKR1B1 [3]): 340 ± 60 nM | IC50 (AKR1B1 [3]): 880 ± 50 nM | mode of inhibition (AKR1B1 [3]): uncompetitive | Ki (AKR1B10 [4]): 2250 ± 240 nM | IC50 (AKR1B10 [4]): 4240 ± 230 nM | mode of inhibition (AKR1B10 [4]): uncompetitive

CC(C)=CCc1c(O)cc2c(c1O)C(=O)C[C@@H](c1ccc(O)cc1)O2 [6-PN, 6-prenylnaringenin]
IC50 (AKR1B1 [5]): 6200 nM

COc1cc(O)c(CC=C(C)C)c(O)c1C(=O)/C=C/c1ccc(O)cc1 [XN, xanthohumol]
IC50 (AKR1B1 [1]): 9.11 ± 1.02 µM | Ki (AKR1B1 [1]): 5.29 ± 0.95 µM | mode of inhibition with respect to the co-factor binding site for NADPH (AKR1B1 [1]): non-competitive | IC50 (AKR1B10 [2]): 6560 ± 690 nM | Ki (AKR1B10 [2]): 4560 ± 980 nM | effect on the activity of AKR1A1 (AKR1A1): not affecting | Ki (AKR1B1 [3]): 15100 ± 1650 nM | IC50 (AKR1B1 [3]): 29200 ± 2300 nM | mode of inhibition (AKR1B1 [3]): uncompetitive | Ki (AKR1B10 [4]): 20100 ± 3730 nM | IC50 (AKR1B10 [4]): 41400 ± 6860 nM | mode of inhibition (AKR1B10 [4]): uncompetitive

CC1(C)CC[C@]2(C(=O)O)CC[C@]3(C)C(=CC[C@@H]4[C@@]5(C)CC[C@H](O)C(C)(C)[C@@H]5CC[C@]43C)[C@@H]2C1 [oleanolic acid]
IC50 (AKR1B10 [6]): 90 nM

CC(C)=CCc1c(O)cc(O)c2c1O[C@H](c1ccc(O)cc1)CC2=O [8-PN, 8-prenylnaringenin]
IC50 (AKR1B1 [1]): 0.81 ± 0.03 µM | Ki (AKR1B1 [1]): 0.3 ± 0.03 µM | mode of inhibition with respect to the co-factor binding site for NADPH (AKR1B1 [1]): non-competitive | inhibitory potency, times greater as compared to that of 6-PN (AKR1B1 [1]; ratio of AKR1B1 IC50 values, glyceraldehyde as substrate): 7.6 times | IC50 (AKR1B10 [2]): 990 ± 40 nM | Ki (AKR1B10 [2]): 520 ± 50 nM | effect on the activity of AKR1A1 (AKR1A1): not affecting | Ki (AKR1B1 [3]): 710 ± 90 nM | IC50 (AKR1B1 [3]): 1870 ± 90 nM | mode of inhibition (AKR1B1 [3]): uncompetitive | Ki (AKR1B10 [4]): 1950 ± 120 nM | IC50 (AKR1B10 [4]): 3960 ± 170 nM | mode of inhibition (AKR1B10 [4]): uncompetitive

C[C@@]12CCC[C@H]1[C@@H]1C[C@@H](O)[C@@]3(O)C[C@@H](O)CC[C@]3(CO)[C@H]1CC2 [Androst-3β,5α,6β,19-tetrol]
IC50 (AKR1B10 [6]): 860 nM
